Broadly, the IC50 is the concentration at which inhibition is half-maximal.

The subject of test [1] is SMMC-7721. The experiment in a line: Cytotoxicity against human SMMC7721 cells after 48 hrs by MTT assay. It is filed as functional, cell-based. The settings on record: SMMC-7721, 48 h.
Test [2] has as its system SMMC-7721. Nature of the test: Cell cycle arrest in human SMMC7721 cells assessed as G1 phase accumulation at IC50 after 24 hrs by propidium iodide staining based flow cytometry (reference value: 57.6 %). It is filed as functional. A general note: A flow cytometer gives signals particle by particle.
For test [3], the system named is SMMC-7721. Nature of the test: Induction of apoptosis in human SMMC7721 cells assessed as late apoptotic cells at half IC50 after 24 hrs by annexin V/PI-staining based flow cytometry (reference value: 0.5 %). It is filed as functional.
The subject of test [4] is SMMC-7721. Nature of the test: Cell cycle arrest in human SMMC7721 cells assessed as G2/M phase accumulation at half IC50 after 24 hrs by propidium iodide-staining based flow cytometry (reference value: 28.8 %). It is filed as functional.
Test [5] has as its system SMMC-7721. Nature of the test: Cell cycle arrest in human SMMC7721 cells assessed as G2/M phase accumulation at IC50 after 24 hrs by propidium iodide staining based flow cytometry (reference value: 28.8 %). It is filed as functional.
In test [6] the test system is SMMC-7721. Nature of the test: Induction of apoptosis in human SMMC7721 cells assessed as live cells at half IC50 after 24 hrs by annexin V/PI-staining based flow cytometry (reference value: 97.3 %). It is filed as functional.
The test system of test [7] is SMMC-7721. The experiment in a line: Induction of apoptosis in human SMMC7721 cells assessed as early apoptotic cells at IC50 after 24 hrs by annexin V/PI-staining based flow cytometry (reference value: 0.6 %). It is filed as functional.
The subject of test [8] is SMMC-7721. Nature of the test: Induction of apoptosis in human SMMC7721 cells assessed as increase in cleaved caspase 9 levels after 24 hrs by Western blot method. It is filed as functional, cell-based. (In western blotting, separated proteins are transferred to a membrane and probed.)
Test [9] deals with SMMC-7721. The experiment in a line: Cell cycle arrest in human SMMC7721 cells assessed as sub-G1 phase accumulation at half IC50 after 24 hrs by propidium iodide-staining based flow cytometry (reference value: 0.8 %). It is filed as functional.
Test [10] deals with SMMC-7721. The experiment in a line: Induction of apoptosis in human SMMC7721 cells assessed as necrotic cells at half IC50 after 24 hrs by annexin V/PI-staining based flow cytometry (Rvb =1.6 %). It is filed as functional.
Test [11] relates to SMMC-7721. Nature of the test: Induction of apoptosis in human SMMC7721 cells assessed as necrotic cells at IC50 after 24 hrs by annexin V/PI-staining based flow cytometry (Rvb =1.6 %). It is filed as functional.
For test [12], the system named is SMMC-7721. The experiment in a line: Induction of apoptosis in human SMMC7721 cells assessed as early apoptotic cells at half IC50 after 24 hrs by annexin V/PI-staining based flow cytometry (reference value: 0.6 %). It is filed as functional.
Test [13] relates to SMMC-7721. The experiment in a line: Induction of apoptosis in human SMMC7721 cells assessed as decrease in Bcl2 levels after 24 hrs by Western blot method. It is filed as functional, cell-based.
The test system of test [14] is SMMC-7721. Nature of the test: Cell cycle arrest in human SMMC7721 cells assessed as S phase accumulation at half IC50 after 24 hrs by propidium iodide-staining based flow cytometry (reference value: 12.7 %). It is filed as functional.
Test [15] deals with SMMC-7721. The experiment in a line: Cell cycle arrest in human SMMC7721 cells assessed as G1 phase accumulation at half IC50 after 24 hrs by propidium iodide-staining based flow cytometry (reference value: 57.6 %). It is filed as functional.
The subject of test [16] is SMMC-7721. Nature of the test: Induction of apoptosis in human SMMC7721 cells assessed as late apoptotic cells at IC50 after 24 hrs by annexin V/PI-staining based flow cytometry (reference value: 0.5 %). It is filed as functional.
In test [17] the test system is SMMC-7721. Nature of the test: Induction of apoptosis in human SMMC7721 cells assessed as increase in cleaved caspase 3 levels after 24 hrs by Western blot method. It is filed as functional, cell-based.
The subject of test [18] is SMMC-7721. Nature of the test: Induction of apoptosis in human SMMC7721 cells assessed as live cells at IC50 after 24 hrs by annexin V/PI-staining based flow cytometry (reference value: 97.3 %). It is filed as functional.
In test [19] the test system is SMMC-7721. Nature of the test: Induction of apoptosis in human SMMC7721 cells assessed as broken nuclei after 24 hrs by Hoechst 33258 staining based fluorescent microscopic method. It is filed as functional, cell-based.
Test [20] relates to SMMC-7721. The experiment in a line: Cell cycle arrest in human SMMC7721 cells assessed as S phase accumulation at IC50 after 24 hrs by propidium iodide staining based flow cytometry (reference value: 12.7 %). It is filed as functional.
Test [21] relates to SMMC-7721. The experiment in a line: Induction of apoptosis in human SMMC7721 cells assessed as condensed nuclei after 24 hrs by Hoechst 33258 staining based fluorescent microscopic method. It is filed as functional, cell-based.
The test system of test [22] is SMMC-7721. Nature of the test: Induction of apoptosis in human SMMC7721 cells assessed as increase in cleaved caspase 8 levels after 24 hrs by Western blot method. It is filed as functional, cell-based.
The subject of test [23] is SMMC-7721. The experiment in a line: Induction of apoptosis in human SMMC7721 cells assessed as increase in Bax levels after 24 hrs by Western blot method. It is filed as functional, cell-based.
In test [24] the test system is SMMC-7721. Nature of the test: Cell cycle arrest in human SMMC7721 cells assessed as sub-G1 phase accumulation at IC50 after 24 hrs by propidium iodide staining based flow cytometry (reference value: 0.8 %). It is filed as functional.
The test system of test [25] is SMMC-7721. The experiment in a line: Induction of apoptosis in human SMMC7721 cells after 24 hrs by annexin V/PI-staining based flow cytometry. It is filed as functional, cell-based.
Test [26] deals with H22. The experiment in a line: Antitumor activity against mouse H22 cells implanted in Kunming mouse assessed as tumor weight at 15 mg/kg, po administered once daily for 7 days (reference value: 0.66 +/- 0.18 g). It is filed as functional.
For test [27], the system named is H22. Nature of the test: Antitumor activity against mouse H22 cells implanted in Kunming mouse assessed as tumor growth inhibition at 15 mg/kg, po administered once daily for 7 days relative to control. The following applies: 168 h, read-out: TGI. It is filed as functional.

Compound `C=C1C[C@@]23CC[C@H]4[C@@](C)(CCC[C@@]4(C)C(=O)O)[C@@H]2CC[C@H]1C3` came in with an IC50 in the test with SMMC-7721 [1] of 67.4 µM. Moreover, the Activity worked out at 73.3% with SMMC-7721 [2]; 5.1% in the test on SMMC-7721 [3]; 26.9% with SMMC-7721 [4]; 18% in the test with SMMC-7721 [5]; 80.4% in the test on SMMC-7721 [6]; 12.9% in the test with SMMC-7721 [7]. In addition, the Activity entry in the test on SMMC-7721 [8] was “Dose-dependent effect”; with SMMC-7721 [9], 1%; in the test on SMMC-7721 [10], 3.8%; in the test on SMMC-7721 [11], 2.6%; in the test with SMMC-7721 [12], 10.7%; in the test with SMMC-7721 [13] it was “Dose-dependent effect”. Also, the Activity with SMMC-7721 [14] was 11.2%; with SMMC-7721 [15] it was 61%; in the test on SMMC-7721 [16] it was 5.2%; in the test on SMMC-7721 [17] it was “Dose-dependent effect”; in the test on SMMC-7721 [18] it was 79.3%; with SMMC-7721 [19] it was “Dose-dependent effect”. For the same compound, the Activity in the test on SMMC-7721 [20] is 7.7%; with SMMC-7721 [21], “Dose-dependent effect”; with SMMC-7721 [22], “Dose-dependent effect”; in the test on SMMC-7721 [23] it was “Dose-dependent effect”; in the test on SMMC-7721 [24], 1.2%; with SMMC-7721 [25] it was “Dose-dependent effect”.

`CC1=C[C@@]23CC[C@H]4[C@@](C)(CCC[C@@]4(C)C(=O)O)[C@@H]2CC[C@H]1C3` came in with a half-inhibitory concentration (IC50) with SMMC-7721 [1] of 45.7 µM. For the same compound, the Activity is given as 60.9% with SMMC-7721 [2]; 3.5% with SMMC-7721 [3]; 25.5% with SMMC-7721 [4]; 26.9% in the test on SMMC-7721 [5]; 85.2% with SMMC-7721 [6]; 10.8% in the test on SMMC-7721 [7]. The Activity was 1.1% in the test with SMMC-7721 [9]; 3.4% with SMMC-7721 [10]; 6.4% in the test on SMMC-7721 [11]; 7.8% in the test with SMMC-7721 [12]; 14.8% in the test on SMMC-7721 [14]; 58.5% in the test on SMMC-7721 [15]. Moreover, the Activity with SMMC-7721 [16] was 7.4%; with SMMC-7721 [18], 75.4%; in the test on SMMC-7721 [19], “Dose-dependent effect”; in the test with SMMC-7721 [20], 11%; in the test with SMMC-7721 [21], “Dose-dependent effect”; in the test with SMMC-7721 [24] it was 0.3%. Moreover, in the test with SMMC-7721 [25], the Activity entry is “Dose-dependent effect”.

Regarding `O=c1[nH]cc(F)c(=O)[nH]1` [FLUOROURACIL], in the test with H22 [26], the Activity was 0.36 g. The inhibition in vivo at 15 mg/kg with H22 [27] worked out at 44.7%.

The values above are taken from ChEMBL document CHEMBL4014302, “Studies on anti-hepatoma activity of Annona squamosa L. pericarp extract” (Bioorg Med Chem Lett, 2017).
